Active and inactive are the calls of the source. The calls are words filed in the database; no cut-off is given here.
Assays:
[1] = target: T1, Mitogen-activated protein kinase kinase kinase kinase 2 (Homo sapiens, UniProt Q12851); test: Inhibition of GCK (unknown origin) by radiometric biochemical kinase assay
T1 sequence (Q12851 whole entry): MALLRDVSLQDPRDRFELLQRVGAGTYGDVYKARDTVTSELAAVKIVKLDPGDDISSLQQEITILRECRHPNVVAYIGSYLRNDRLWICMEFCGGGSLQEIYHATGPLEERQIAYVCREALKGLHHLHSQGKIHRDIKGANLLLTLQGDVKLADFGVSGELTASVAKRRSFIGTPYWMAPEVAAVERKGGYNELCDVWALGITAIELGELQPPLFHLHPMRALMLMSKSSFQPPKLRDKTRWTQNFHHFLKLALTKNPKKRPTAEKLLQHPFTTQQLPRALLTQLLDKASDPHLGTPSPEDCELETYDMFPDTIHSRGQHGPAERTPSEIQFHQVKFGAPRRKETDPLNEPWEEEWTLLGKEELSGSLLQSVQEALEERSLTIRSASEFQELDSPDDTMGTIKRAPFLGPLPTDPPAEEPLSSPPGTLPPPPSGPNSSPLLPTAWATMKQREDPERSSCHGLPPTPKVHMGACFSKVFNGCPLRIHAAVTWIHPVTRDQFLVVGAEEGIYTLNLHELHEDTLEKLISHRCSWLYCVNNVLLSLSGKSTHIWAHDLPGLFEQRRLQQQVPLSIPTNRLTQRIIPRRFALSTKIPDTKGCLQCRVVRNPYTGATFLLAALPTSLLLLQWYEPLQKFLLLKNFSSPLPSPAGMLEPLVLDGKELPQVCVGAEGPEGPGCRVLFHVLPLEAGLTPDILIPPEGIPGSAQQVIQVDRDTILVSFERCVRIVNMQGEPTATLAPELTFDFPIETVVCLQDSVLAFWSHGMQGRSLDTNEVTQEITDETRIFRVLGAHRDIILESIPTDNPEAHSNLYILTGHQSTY

[2] = Growth inhibition of parental mouse BA/F3 cells after 72 hrs by celltiter-glo assay; format: cell-based, BaF3
Mus musculus = organism: Mus musculus; test: Inhibition of ACK1/GCK in mouse BA/F3 cells assessed as reduction in NRAS-G12D mutant-mediated cell proliferation after 72 hrs by celltiter-glo assay; format: cell-based
Activated CDC42 kinase 1 = Activated CDC42 kinase 1 (Homo sapiens, UniProt Q07912); test: Inhibition of ACK1 (unknown origin) by radiometric biochemical kinase assay
OCI-AML-3 [3] = test: Growth inhibition of human OCI-AML3 cells harboring NRAS-Q61L mutant after 72 hrs by celltiter-glo assay; format: functional; settings: OCI-AML-3, 72 h
[4] = Growth inhibition of parental human U937 cells after 72 hrs by celltiter-glo assay; format: cell-based, U-937
OCI-AML-3 [5] = test: Growth inhibition of ACK1/GCK knockdown human OCI-AML3 cells harboring NRAS-Q61L mutant at 0.2 uM after 72 hrs by celltiter-glo assay; format: functional, cell-based
CYP3A4 = CYP3A4 (Homo sapiens, UniProt P08684); test: Inhibition of CYP3A4 (unknown origin) assessed as activity remaining at 10 uM relative to control; format: ADME; settings: read-out: Activity
[6] = Metabolic stability in dog liver microsomes assessed as compound remaining at 1 uM after 30 mins; format: ADME, Canis lupus familiaris, microsome; settings: read-out: Stability
[7] = Metabolic stability in rat liver microsomes assessed as compound remaining at 1 uM after 30 mins; format: ADME, microsome; settings: read-out: Stability
[8] = Metabolic stability in human liver microsomes assessed as compound remaining at 1 uM after 30 mins; format: ADME, microsome; settings: read-out: Stability
CYP1A2 = target: T2, CYP1A2 (Homo sapiens, UniProt P05177); test: Inhibition of CYP1A2 (unknown origin) assessed as activity remaining at 10 uM relative to control; format: ADME; settings: read-out: Activity
T2 sequence (P05177 whole entry): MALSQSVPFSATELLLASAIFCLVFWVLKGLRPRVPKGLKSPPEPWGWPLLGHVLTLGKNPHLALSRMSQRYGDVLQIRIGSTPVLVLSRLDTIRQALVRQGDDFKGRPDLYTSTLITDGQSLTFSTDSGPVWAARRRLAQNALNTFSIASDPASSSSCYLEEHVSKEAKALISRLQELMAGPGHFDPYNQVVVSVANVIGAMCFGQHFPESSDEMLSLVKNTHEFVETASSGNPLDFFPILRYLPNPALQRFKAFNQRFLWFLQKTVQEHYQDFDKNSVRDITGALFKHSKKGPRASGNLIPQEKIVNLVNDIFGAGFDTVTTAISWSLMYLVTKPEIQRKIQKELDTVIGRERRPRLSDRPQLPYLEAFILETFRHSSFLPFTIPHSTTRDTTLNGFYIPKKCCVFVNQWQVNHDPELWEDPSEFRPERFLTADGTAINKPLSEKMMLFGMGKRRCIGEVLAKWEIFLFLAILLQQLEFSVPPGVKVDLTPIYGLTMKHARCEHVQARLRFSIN

OCI-AML-3 [9] = test: Growth inhibition of ACK1/GCK knockdown human OCI-AML3 cells harboring NRAS-Q61L mutant at 0.05 uM after 72 hrs by celltiter-glo assay; format: functional, cell-based
CYP2D6 = CYP2D6 (Homo sapiens, UniProt P10635); test: Inhibition of CYP2D6 (unknown origin) assessed as activity remaining at 10 uM relative to control; format: ADME; settings: read-out: Activity
[10] = Metabolic stability in mouse liver microsomes assessed as compound remaining at 1 uM after 30 mins; format: ADME, microsome; settings: read-out: Stability
CYP2C9 = CYP2C9 (Homo sapiens, UniProt P11712); test: Inhibition of CYP2C9 (unknown origin) assessed as activity remaining at 10 uM relative to control; format: ADME; settings: read-out: Activity
Chain of CYP2C9 (P11712 whole entry): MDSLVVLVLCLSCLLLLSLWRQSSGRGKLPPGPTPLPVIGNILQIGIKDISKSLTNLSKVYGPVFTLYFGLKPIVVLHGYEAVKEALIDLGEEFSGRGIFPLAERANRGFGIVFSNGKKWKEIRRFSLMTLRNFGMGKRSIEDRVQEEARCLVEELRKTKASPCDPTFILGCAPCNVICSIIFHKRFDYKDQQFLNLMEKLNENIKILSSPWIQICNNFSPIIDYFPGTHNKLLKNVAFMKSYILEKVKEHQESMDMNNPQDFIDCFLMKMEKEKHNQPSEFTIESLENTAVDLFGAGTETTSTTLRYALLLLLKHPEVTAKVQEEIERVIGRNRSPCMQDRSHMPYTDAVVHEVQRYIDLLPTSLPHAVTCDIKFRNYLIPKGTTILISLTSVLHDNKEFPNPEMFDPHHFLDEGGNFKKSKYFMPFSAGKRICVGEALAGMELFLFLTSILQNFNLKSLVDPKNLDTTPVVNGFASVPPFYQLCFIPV

Chain of Activated CDC42 kinase 1 (Q07912 whole entry): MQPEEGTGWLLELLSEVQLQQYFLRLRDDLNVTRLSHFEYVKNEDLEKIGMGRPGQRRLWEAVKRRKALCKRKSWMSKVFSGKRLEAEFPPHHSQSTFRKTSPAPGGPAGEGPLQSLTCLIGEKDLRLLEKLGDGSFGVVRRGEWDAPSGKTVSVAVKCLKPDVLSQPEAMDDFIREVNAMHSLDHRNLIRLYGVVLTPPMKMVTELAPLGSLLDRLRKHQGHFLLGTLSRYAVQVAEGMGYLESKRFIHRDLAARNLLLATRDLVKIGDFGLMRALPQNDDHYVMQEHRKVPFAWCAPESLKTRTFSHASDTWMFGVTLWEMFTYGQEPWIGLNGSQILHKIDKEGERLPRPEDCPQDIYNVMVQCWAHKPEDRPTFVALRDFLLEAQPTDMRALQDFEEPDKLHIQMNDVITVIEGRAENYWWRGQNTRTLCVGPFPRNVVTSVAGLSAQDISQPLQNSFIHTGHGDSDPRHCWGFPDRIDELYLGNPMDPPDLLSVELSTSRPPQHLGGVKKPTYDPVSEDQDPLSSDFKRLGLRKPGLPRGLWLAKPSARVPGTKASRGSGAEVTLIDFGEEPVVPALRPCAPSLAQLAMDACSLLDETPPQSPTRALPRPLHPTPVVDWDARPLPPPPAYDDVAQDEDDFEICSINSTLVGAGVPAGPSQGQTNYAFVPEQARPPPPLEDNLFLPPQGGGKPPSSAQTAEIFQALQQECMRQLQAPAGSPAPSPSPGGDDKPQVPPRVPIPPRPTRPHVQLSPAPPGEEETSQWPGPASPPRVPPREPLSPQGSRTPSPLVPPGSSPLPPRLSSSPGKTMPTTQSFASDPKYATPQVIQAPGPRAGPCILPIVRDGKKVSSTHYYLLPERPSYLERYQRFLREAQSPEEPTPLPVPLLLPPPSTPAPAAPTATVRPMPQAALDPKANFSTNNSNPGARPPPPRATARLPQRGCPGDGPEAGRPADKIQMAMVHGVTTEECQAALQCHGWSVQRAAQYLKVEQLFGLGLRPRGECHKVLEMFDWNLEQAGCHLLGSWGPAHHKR
Chain of CYP3A4 (P08684 whole entry): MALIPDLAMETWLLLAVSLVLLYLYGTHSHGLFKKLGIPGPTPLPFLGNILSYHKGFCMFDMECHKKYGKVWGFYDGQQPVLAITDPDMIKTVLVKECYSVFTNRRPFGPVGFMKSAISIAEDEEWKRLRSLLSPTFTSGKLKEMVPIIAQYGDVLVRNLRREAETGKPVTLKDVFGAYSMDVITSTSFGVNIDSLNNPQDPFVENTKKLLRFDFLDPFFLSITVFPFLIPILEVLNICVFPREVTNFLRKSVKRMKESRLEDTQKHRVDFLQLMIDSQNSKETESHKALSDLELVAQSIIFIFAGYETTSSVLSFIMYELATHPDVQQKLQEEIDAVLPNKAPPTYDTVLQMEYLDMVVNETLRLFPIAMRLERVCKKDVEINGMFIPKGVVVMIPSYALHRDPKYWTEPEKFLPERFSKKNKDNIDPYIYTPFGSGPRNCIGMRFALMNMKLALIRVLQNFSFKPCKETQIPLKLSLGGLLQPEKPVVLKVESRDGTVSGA
Chain of CYP2D6 (P10635 whole entry): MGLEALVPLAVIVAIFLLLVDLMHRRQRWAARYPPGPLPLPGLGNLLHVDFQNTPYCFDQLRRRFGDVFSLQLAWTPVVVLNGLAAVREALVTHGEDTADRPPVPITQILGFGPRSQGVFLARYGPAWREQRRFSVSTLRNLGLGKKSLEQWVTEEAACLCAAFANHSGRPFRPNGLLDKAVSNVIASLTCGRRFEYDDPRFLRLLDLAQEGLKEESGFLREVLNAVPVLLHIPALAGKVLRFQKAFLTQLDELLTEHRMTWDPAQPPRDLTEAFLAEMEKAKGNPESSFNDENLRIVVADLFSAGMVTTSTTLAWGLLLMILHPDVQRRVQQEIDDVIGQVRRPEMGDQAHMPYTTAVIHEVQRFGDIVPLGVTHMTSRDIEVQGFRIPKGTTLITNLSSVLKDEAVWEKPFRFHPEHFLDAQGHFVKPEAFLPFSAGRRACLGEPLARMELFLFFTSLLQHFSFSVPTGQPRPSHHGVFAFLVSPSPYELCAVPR

Row | SMILES | IC50 [1] | GI50 at 72 h [2] | GI50 (Mus musculus) | IC50 (Activated CDC42 kinase 1) | other results
1 | Cc1ccc(NC(=O)c2cccc(C(F)(F)F)c2)cc1N1Cc2cnc(NC3CC3)nc2N(C)C1=O | 42 nM | 5060 nM | 547 nM | 35 nM | –
2 | Cc1ccc(Nc2ncc3c(n2)N(C)C(=O)N(c2cc(NC(=O)c4ccc(CN5CCN(C)CC5)c(C(F)(F)F)c4)ccc2C)C3)cn1 | 5 nM | 818 nM | 316 nM | 26 nM | –
3 | Cc1ccc(Nc2ncc3c(n2)N(C)C(=O)N(c2cc(NC(=O)c4cc(-n5cnc(C)c5)cc(C(F)(F)F)c4)ccc2C)C3)cn1 | 27 nM | > 5000 nM | 238 nM | 53 nM | –
4 | Cc1ccc(NC(=O)c2cccc(C(F)(F)F)c2)cc1N1Cc2cnc(NC3CCCCC3)nc2N(C)C1=O | 925 nM | 5220 nM | 2450 nM | 60 nM | –
5 | Cc1ccc(NC(=O)c2ccc(CN3CCC(N(C)C)C3)c(C(F)(F)F)c2)cc1N1Cc2cnc(Nc3cnn(C)c3)nc2N(C)C1=O (stereo not given) | 8 nM | 414 nM | 68 nM | 25 nM | –
6 | Cc1ccc(Nc2ncc3c(n2)N(C)C(=O)N(c2cc(NC(=O)c4cc(N5CCOCC5)cc(C(F)(F)F)c4)ccc2C)C3)cn1 | 45 nM | 1650 nM | 284 nM | 26 nM | GI50 (OCI-AML-3 [3]): 260 nM; GI50 at 72 h [4]: 2800 nM; growth inhibition (GI) (OCI-AML-3 [5]): Active
7 | Cc1cc(Nc2ncc3c(n2)N(C)C(=O)N(c2cc(NC(=O)c4ccc(CN5CCC(N(C)C)C5)c(C(F)(F)F)c4)ccc2C)C3)n(C)n1 (stereo not given) | 17 nM | 509 nM | 123 nM | 11 nM | –
8 | CCN1CCN(C(=O)c2ccc(Nc3ncc4c(n3)N(C)C(=O)N(c3cc(NC(=O)c5ccc(CN6CCC(N(C)C)C6)c(C(F)(F)F)c5)ccc3C)C4)cn2)CC1 (stereo not given) | 14 nM | 704 nM | 94 nM | 21 nM | –
9 | Cc1ccc(NC(=O)c2cccc(C(F)(F)F)c2)cc1N1Cc2cnc(Nc3cnn(C)c3)nc2N(C)C1=O | 6 nM | 352 nM | 100 nM | 20 nM | activity at 10 µM (CYP3A4): > 100%; remaining at 0.5 h, 1 µM [6]: 71.3%; GI50 (OCI-AML-3 [3]): 42 nM; remaining at 0.5 h, 1 µM [7]: 98.4%; remaining at 0.5 h, 1 µM [8]: 78.8%; GI50 at 72 h [4]: 1120 nM; activity at 10 µM (CYP1A2): 88%; growth inhibition (GI) (OCI-AML-3 [9]): Active; activity at 10 µM (CYP2D6): 78.8%; remaining at 0.5 h, 1 µM [10]: 73.3%; activity at 10 µM (CYP2C9): 42.9%
